According to patent publication US8455528B2, “Imidazole derivatives useful as inhibitors of FAAH” (Merck Sharp & Dohme Corp., priority 2008, dated 2013):
pIC50: −log10 of the molar value. Where a name gives a salt, the structure may show the parent alone.

Each molecule was assayed against T1, Human FAAH (Homo sapiens, UniProt O00519) (assay: Human FAAH lysate assay (CHO cell lysate, AAMCA fluorescent substrate)). Settings: FAAH inhibition, CHO cell lysate expressing human FAAH; read-out: Human Lysate.
T1 construct: The full length FAAH was subcloned into the mammalian expression vector, pcDEF.neo; expressed in transfected cells
T1 sequence (O00519 1-579): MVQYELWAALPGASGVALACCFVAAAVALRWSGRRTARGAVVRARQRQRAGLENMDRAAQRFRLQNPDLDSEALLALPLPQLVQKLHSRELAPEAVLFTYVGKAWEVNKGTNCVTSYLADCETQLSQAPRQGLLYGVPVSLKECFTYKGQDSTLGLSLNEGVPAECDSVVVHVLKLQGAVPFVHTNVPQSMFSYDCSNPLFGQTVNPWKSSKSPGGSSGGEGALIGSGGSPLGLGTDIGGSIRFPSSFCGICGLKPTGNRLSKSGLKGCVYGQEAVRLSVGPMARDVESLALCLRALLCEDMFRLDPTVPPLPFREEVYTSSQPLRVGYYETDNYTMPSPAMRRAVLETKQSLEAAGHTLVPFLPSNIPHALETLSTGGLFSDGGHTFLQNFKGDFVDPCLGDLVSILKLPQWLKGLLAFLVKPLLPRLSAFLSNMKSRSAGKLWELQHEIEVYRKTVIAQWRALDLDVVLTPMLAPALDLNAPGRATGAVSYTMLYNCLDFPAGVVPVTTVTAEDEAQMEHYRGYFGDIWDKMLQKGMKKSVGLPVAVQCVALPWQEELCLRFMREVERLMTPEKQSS
Type: biochemical
Text: To assist in assay development stable cell lines for human, murine and rat full length FAAH were developed. Human FAAH cDNA (Accession No: NM-001441.1) was purchased from Origene (Rockville, Md.). The full length FAAH was subcloned into the mammalian expression vector, pcDEF.neo, using XbaI and EcoRI restriction sites and used for stable cell line generation. CHO cells expressing FAAH were used to prepare either crude cell lysate or microsome fractions. To harvest cells, tissue culture media was decanted, the monolayer washed three times with Ca^++Mg^++ free PBS and cells recovered after 15 min in enzyme free dissociation media (Millipore Corp, Billerica, Mass.). Cells were collected by centrifuging at 2000 rpm for 15 min. and the cell pellet re-suspended with 50 mM HEPES (pH 7.4) containing 1 mM EDTA and the protease inhibitors aprotinin (1 mg/ml) and leupeptin (100 μM). […] The pellet containing FAAH-enriched microsomes was re-suspend in 50 mM HEPES, (pH 7,4) 1 mM EDTA, and any remaining DNA sheared by passage of material through a 23 gauge needle and aliquots of enzyme were store at -80° C. prior to use. […] (American Radiolabeled Chemicals; 1 mCi/ml) with FAAH (Life Sciences (1995), 56, 1999-2005 and Journal of Pharmacology and Experimented Therapeutics (1997), 283, 729-734), Analytical. Biochemistry (2003), 318, 270-5. […] Analytical. Biochemistry (2005). 343, 143-51 […] Fluorescent release as a measure of FAAH activity was monitored by reading the plate in a CytoFluor Multiplate Reader ([…]). Whole cell assay is conducted with cells harvested after rinsing tissue culture flasks three times with Ca^++Mg^++ free PBS, incubating for 10 min in Enzyme free dissociation media and centrifuging for 5 minutes at 1,000 rpm in table top centrifuge. Cells are resuspended in assay buffer at desired cell number in (4×10^4 cells/assay in 96-well format; 1×10^4 cells/assay in 384-well format) and assayed as described. […] The reaction was terminated by addition of 2 volumes of chloroform:methanol (1:1) and mixed by vortexing. […] K., et al. A fluorescence-based assay for fatty acid amide hydrolase compatible with high-throughput screening. Anal. Biochem. 343:143-51 (2005) • Wilson S. J., et l. A high-throughput-compatible assay for determining the activity of fatty acid amide hydrolase. Anal Biochem. 318:270-5 (2003).

| pIC50 | SMILES |
| --- | --- |
| 6.43 | Cn1c(-c2ccccc2)nc(Sc2ccc(Cl)cc2)c1-c1ccc(C#N)cc1 [Ex 3, 4-{4-[(4-chlorophenyl)thio]-1-methyl-2-phenyl-1H-imidazol-5-yl}benzonitrile] |

Same assay, conditions: human FAAH lysate; read-out: Human FAAH lysate assay: IC50

| pIC50 | SMILES |
| --- | --- |
| 7.61 | CCOC(C)(C)c1nc(-c2ccc(-c3ncon3)cc2)c(Sc2ccc(Cl)cc2)n1C [Example 147, 3-(4-{5-[(4-chlorophenyl)sulfanyl]-2-(2-ethoxypropan-2-yl)-1-methyl-1H-imidazol-4-yl}phenyl)-1,2,4-oxadiazole] |
| 7.54 | CCn1ccc(-c2nc(-c3ccc(-c4ncon4)cc3)c(Sc3ccc(Cl)cc3)n2C)n1 [Example 140, 3-4-({5-[(4-chlorophenyl)sulfanyl]-2-(1-ethyl-1H-pyrazol-3-yl)-1-methyl-1H-imidazol-4-yl)phenyl)-1,2,4-oxadiazole] |
| 7.81 | Cn1c(I)nc(-c2ccc(S(C)(=O)=O)cc2)c1Sc1ccc(Cl)cc1 [Example 133, 5-[(4-chlorophenyl)thio]-2-iodo-1-methyl-4-[4-(methylsulfonyl)phenyl]-1H-imidazole] |
| 7.81 | CC(C)n1ccc(-c2nc(-c3ccc(-c4ncon4)cc3)c(Sc3ccc(Cl)cc3)n2C)n1 [Example 142, 3-(4-{5-[(4-chlorophenyl)sulfanyl]-1-methyl-2-[1-(propan-2-yl)-1H-pyrazol-3-yl]-1H-imidazol-4-yl}phenyl)-1,2,4-oxadiazole] |
| 7.84 | Cn1c(-c2ccccn2)nc(-c2ccc(-c3nccs3)cc2)c1Sc1ccc(Cl)cc1 [Example 119, 2-{5-[(4-chlorophenyl)thio]-1-methyl-4-[4-(1,3-thiazol-2-yl)phenyl]-1H-imidazol-2-yl}pyridine] |
| 7.78 | Cn1c(-c2cccs2)nc(-c2ccc(S(C)(=O)=O)cc2)c1Sc1ccc(Cl)cc1 [Example 137, 5-[(4-chlorophenyl)sulfanyl]-1-methyl-4-[4-(methylsulfonyl)phenyl]-2-(thiophen-2-yl)-1H-imidazole] |
| 6.70 | Cn1cnc(-c2ccc(OC(C)(C)CO)cc2)c1Sc1ccc(Cl)cn1 [Example 125, 5-[(5-chloropyridin-2-yl)thio]-4-[4-(2-hydroxy-1,1-dimethylethoxy)phenyl]-1-methyl-1H-imidazol-3-ium trifluoroacetate] |
| 6.68 | Cn1c(C(C)(C)O)nc(-c2ccc(-c3ncon3)cc2)c1Sc1ccc(Cl)cc1 [Example 146, 2-{5-[(4-chlorophenyl)sulfanyl]-1-methyl-4-[4-(1,2,4-oxadiazol-3-yl)phenyl]-1H-imidazol-2-yl}propan-2-ol] |
| 7.01 | CS(=O)(=O)c1ccc(-c2nc3n(c2Sc2ccc(Cl)cc2)CCC2CCCNC32)cc1 (stereo not drawn) [Example 128, 3-[(4-chlorophenyl)thio]-2-[4-(methylsulfonyl)phenyl]-5,6,6a,7,8,9,10,10a-octahydroimidazo[1,2-h]-1,7-naphthyridine] |
| 7.93 | Cn1ccc(-c2nc(-c3ccc(-c4ncon4)cc3)c(Sc3ccc(Cl)cc3)n2C)n1 [Example 143, 3-(4-{5-[(4-chlorophenyl)sulfanyl]-1-methyl-2-(1-methyl-1H-pyrazol-3-yl)-1H-imidazol-4-yl}phenyl)-1,2,4-oxadiazole] |
| 7.04 | Cn1c(-c2cc(C3CC3)on2)nc(-c2ccc(C(C)(C)O)nc2)c1Sc1ccc(Cl)cn1 [Example 148, 2-(5-{5-[(5-chloropyridin-2-yl)sulfanyl]-2-(5-cyclopropylisoxazol-3-yl)-1-methyl-1H-imidazol-4-yl}pyridin-2-yl)propan-2-ol] |
| 7.33 | CC(C)(O)c1ccc(-c2nc3c4ncccc4ccn3c2Sc2ccc(Cl)cc2)cc1 [Example 130, 2-(4-{3-[(4-chlorophenyl)sulfanyl]imidazo[1,2-h][1,7]naphthyridin-2-yl}phenyl)propan-2-ol] |
| 7.86 | Cn1cc(-c2nc(-c3ccc(S(C)(=O)=O)cc3)c(Sc3ccc(Cl)cc3)n2C)cn1 [Example 134, 4-{5-[(4-chlorophenyl)sulfanyl]-1-methyl-4-[4-(methylsulfonyl)phenyl]-1H-imidazol-2-yl}-1-methyl-1H-pyrazole] |
| 7.64 | Cn1c(-c2ccn(CC(C)(C)O)n2)nc(-c2ccc(C#N)cc2)c1Sc1ccc(Cl)cc1 [Example 145, 4-{5-[(4-chlorophenyl)sulfanyl]-2-[1-(2-hydroxy-2-methylpropyl)-1H-pyrazol-3-yl]-1-methyl-1H-imidazol-4-yl}benzonitrile] |
| 7.17 | CCn1nccc1-c1nc(-c2ccc(-c3ncon3)cc2)c(Sc2ccc(Cl)cc2)n1C [Example 141, 3-(4-{5-[(4-chlorophenyl)sulfanyl]-2-(1-ethyl-1H-pyrazol-5-yl)-1-methyl-1H-imidazol-4-yl}phenyl)-1,2,4-oxadiazole] |
| 7.32 | Cn1c(-c2ccccn2)nc(-c2ccc(S(C)(=O)=O)nc2)c1Sc1ccc(Cl)cn1 [Example 100, 5-Chloro-2-({1-methyl-4-[6-(methylsulfonyl)pyridin-3-yl]-2-pyridin-2-yl-1H-imidazol-5-yl}thio)pyridine] |

Same assay, conditions: human FAAH lysate; read-out: hFAAH lysate IC50

| pIC50 | SMILES |
| --- | --- |
| 7.67 | Cn1c(-c2ncco2)nc(-c2ccc(S(C)(=O)=O)cc2)c1Sc1ccc(Cl)cc1 [Example 139] |
| 6.91 | COc1ccc(-c2nc(-c3ccc(S(C)(=O)=O)cc3)c(Sc3ccc(Cl)cc3)n2C)cn1 [Example 136] |
| 6.94 | Cn1c(-c2ccc(F)c(F)c2)nc(-c2ccc(C(C)(C)O)nc2)c1Sc1ccc(Cl)cc1F [Example 112] |
| 7.73 | Cn1c(-c2ccccn2)nc(-c2ccc(-c3cccs3)cc2)c1Sc1ccc(Cl)cc1 [Example 121] |
| 6.69 | COc1cnc(Sc2c(-c3ccc(S(C)(=O)=O)nc3)nc(-c3ccccn3)n2C)nc1 [Example 104] |
| 8.11 | Cn1c(-c2ccccn2)nc(-c2ccc(-c3ccncc3)cc2)c1Sc1ccc(Cl)cn1 [Example 118] |
| 7.17 | Cn1c(-c2ccc(F)cc2)nc(-c2ccc(C(C)(C)O)nc2)c1Sc1ccc(Cl)cc1 [Example 115] |
| 7.80 | Cn1c(-c2ccccn2)nc(-c2ccc(-c3ccnnc3)cc2)c1Sc1ccc(Cl)cn1 [Example 122] |
| 7.42 | Cn1c(-c2ccccn2)nc(-c2ccc(C(C)(C)O)nc2)c1Sc1ccc(Cl)cn1 [Example 106] |
| 7.47 | Cn1c(-c2ccccn2)nc(-c2ccc(C(C)(C)O)nc2)c1Sc1ccc(Cl)cc1F [Example 110] |
| 7.17 | Cn1c(-c2ccc(F)cc2)nc(-c2ccc(C(C)(C)O)nc2)c1Sc1ccc(Cl)cc1F [Example 113] |
| 6.84 | CN(C)C(=O)c1ccc2cc(-c3nc(C4CC4)n(C)c3Sc3ccc(Cl)cn3)ccc2n1 [Example 132, 6-{5-[(5-chloropyridin-2-yl)thio]-2-cyclopropyl-1-methyl-1H-imidazol-4-yl}-N,N-dimethylquinoline-2-carboxamide] |
| 7.59 | Cn1c(-c2ccsc2)nc(-c2ccc(S(C)(=O)=O)cc2)c1Sc1ccc(Cl)cc1 [Example 135] |
| 8.20 | Cn1c(-c2ccccn2)nc(-c2ccc(S(C)(=O)=O)nc2)c1Sc1ccc(Cl)cc1 [Example 101] |
| 7.58 | Cn1c(-c2ccccn2)nc(-c2ccc(-c3ncco3)cc2)c1Sc1ccc(Cl)cn1 [Example 120] |
| 7.92 | COC(=O)c1ccc(-c2nc3c4ncccc4ccn3c2Sc2ccc(Cl)cc2)cc1 [Example 129] |
| 7.06 | Cn1c(-c2ccc(F)c(F)c2)nc(-c2ccc(C(C)(C)O)nc2)c1Sc1ccc(Cl)cc1 [Example 114] |
| 7.81 | Cn1c(-c2ccccn2)nc(-c2ccc(S(C)(=O)=O)nc2)c1Sc1ccc(F)cc1F [Example 102] |
| 8.06 | Cn1c(-c2ccccn2)nc(-c2ccc(-c3ccsc3)cc2)c1Sc1ccc(Cl)cc1 [Example 117] |
